According to US20200405696A1, “INHIBITORS OF INDOLEAMINE 2,3-DIOXYGENASE AND/OR TRYPTOPHAN 2,3-DIOXYGENASE” (IDORSIA PHARMACEUTICALS LTD, priority 2018, published 2020):

Key:
[1] = target: T1, Recombinant full-length human IDO1 (Homo sapiens, UniProt P14902); assay: IDO1 enzymatic assay (NFK quantified by LCMS); type: biochemical; conditions: 2 nM enzyme, 5 μM L-tryptophan, pH6.5, 30 minutes pre-incubation at RT; mean values when measured multiple times; read-out: hIDO activity (IC50 in nM)
T1 construct: Recombinant full-length human IDO1 with a N-terminal hexahistidine tag; hexahistidine (His6) (N); made in house; host or cells: E. coli
Description: 1) Testing Compounds for IDO Inhibitory Activity in an IDO1 Enzymatic Assay:
Recombinant full-length human IDO1 with a N-terminal hexahistidine tag expressed in E. coli and purified to homogeneity is incubated at a final concentration of 2 nM in assay buffer consisting of 37.5 mM phosphate buffer at pH6.5 supplemented with 10 mM ascorbic acid, 0.45 μM methylene blue, 50U/ml catalase, 0.01% BSA, and 0.01% Tween 20 (protocol modified from Seegers et al, JBS 2014). Example compounds are serially diluted in DMSO, further diluted in phosphate buffer, and added to the enzyme at final concentrations ranging from 10 μM to 0.5 nM. The final DMSO concentration is 0.6%. Following a pre-incubation of 30 minutes at RT, the reaction is started by the addition of L-tryptophan at a final concentration of 5 μM in assay buffer. After 30 minutes of incubation at RT, 3 μL of the 20 μl reaction mixture are transferred to a 384 deep well plate containing 25 μL of deionized water. 100 μl of 200 nM L-Tryptophan-(indole-d5) in cold 100% methanol are added followed by a 10 minutes centrifugation at 3220×g at 4° C. An additional 75 μL of deionized water are then added followed by a 10 minutes centrifugation at 3220×g at 4° C. The product of the reaction N′-Formylkynurenine (NFK) is quantified by LCMS and normalized to the L-Tryptophan-(indole-d5) signal. Samples with 0.6% DMSO (0% effect) and a TDO/IDO inhibitor (100% effect) are used as control samples to set the parameters for the non-linear regression necessary for the determination of the half-maximal inhibitory concentration (IC50) for each compound. For each compound concentration the percentage of activity compared to 0% and 100% effect is calculated as average±STDEV (each concentration measured in duplicate). IC50 values and curves are generated with XLfit software (IDBS) using Dose-Response One Site model 203 (four parameter logistic curve model). The calculated IC50 values may fluctuate depending on the daily assay performance. Fluctuations of this kind are known to those skilled in the art. When compounds are measured multiple times, mean values are given.

[2] = target: T2, Recombinant human TDO comprising amino acids 19-407 (Homo sapiens, UniProt P48775); assay: TDO2 enzymatic assay (NFK quantified by LCMS); type: biochemical; conditions: 15 nM enzyme, 200 μM L-tryptophan, pH7, 30 minutes pre-incubation at RT; mean values when measured multiple times; read-out: hTDO activity (IC50 in nM)
T2 construct: Recombinant human TDO comprising amino acids 19-407 with a N-terminal hexahistidine tag; hexahistidine (His6) (N); made in house; host or cells: E. coli
Description: 2) Testing Compounds for TDO Inhibitory Activity in a TDO2 Enzymatic Assay:
Recombinant human TDO comprising amino acids 19-407 with a N-terminal hexahistidine tag expressed in E. coli and purified to homogeneity is incubated at a final concentration of 15 nM in assay buffer consisting of 75 mM phosphate buffer at pH7 supplemented with 100 μM ascorbic acid, 50U/ml Catalase, 0.01% BSA, and 0.01% Tween 20 (protocol modified from Seegers et al, JBS 2014). Example compounds are serially diluted in DMSO, further diluted in phosphate buffer, and added to the reaction mixture at final concentrations ranging from 10 μM to 0.5 nM. The final DMSO concentration is 0.6%. Following a pre-incubation of 30 minutes at RT, the reaction is started by the addition of L-tryptophan at a final concentration of 200 μM in assay buffer. After 30 minutes of incubation at RT, 3 μL of the reaction mixture are transferred to a 384 deep well plate containing 25 μL of deionized water. 100 μl of 200 nM L-Tryptophan-(indole-d5) in cold 100% methanol are added followed by a 10 minutes centrifugation at 3220×g at 4° C. An additional 75 μL of deionized water are then added followed by a 10 minutes centrifugation at 3220×g at 4° C. The product of the reaction N′-Formylkynurenine (NFK) is quantified by LCMS and normalized to the L-Tryptophan-(indole-d5) signal. Samples with 0.6% DMSO (0% effect) and a TDO/IDO inhibitor (100% effect) are used as control samples to set the parameters for the non-linear regression necessary for the determination of the half-maximal inhibitory concentration (IC50) for each compound. For each compound concentration the percentage of activity compared to 0% and 100% effect is calculated as average±STDEV (each concentration measured in duplicate). IC50 values and curves are generated with XLfit software (IDBS) using Dose-Response One Site model 203 (four parameter logistic curve model). The calculated IC50 values may fluctuate depending on the daily assay performance. Fluctuations of this kind are known to those skilled in the art. When compounds are measured multiple times, mean values are given.

T1 sequence (P14902 whole entry): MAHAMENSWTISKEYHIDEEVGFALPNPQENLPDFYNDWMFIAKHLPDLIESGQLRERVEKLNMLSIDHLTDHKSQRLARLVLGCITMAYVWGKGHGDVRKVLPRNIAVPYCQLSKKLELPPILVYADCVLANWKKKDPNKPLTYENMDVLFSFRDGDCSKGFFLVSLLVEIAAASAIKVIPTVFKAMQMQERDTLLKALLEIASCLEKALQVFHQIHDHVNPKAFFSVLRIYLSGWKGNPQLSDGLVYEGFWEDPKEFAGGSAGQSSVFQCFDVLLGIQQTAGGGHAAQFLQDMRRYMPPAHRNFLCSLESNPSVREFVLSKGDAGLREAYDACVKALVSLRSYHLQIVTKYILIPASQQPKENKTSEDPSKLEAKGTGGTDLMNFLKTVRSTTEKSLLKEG
T2 sequence (P48775 19-406 limits assumed): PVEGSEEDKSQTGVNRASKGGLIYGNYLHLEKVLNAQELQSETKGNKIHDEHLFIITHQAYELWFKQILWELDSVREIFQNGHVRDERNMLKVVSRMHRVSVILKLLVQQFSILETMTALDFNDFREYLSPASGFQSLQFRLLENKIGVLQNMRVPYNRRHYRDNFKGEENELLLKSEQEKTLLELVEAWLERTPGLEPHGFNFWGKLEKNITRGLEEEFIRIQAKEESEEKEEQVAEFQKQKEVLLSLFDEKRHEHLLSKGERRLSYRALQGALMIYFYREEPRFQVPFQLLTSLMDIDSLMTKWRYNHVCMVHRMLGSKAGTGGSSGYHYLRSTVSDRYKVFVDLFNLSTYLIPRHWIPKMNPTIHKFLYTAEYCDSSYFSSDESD

SMILES	IC50 [1] [nM]	IC50 [2] [nM]
OC[C@H](O)COc1ccc(-n2cc(C(O)c3c(C4CC4)sc4cncn34)nn2)cc1 (mixture of isomers) [Example 202, (S)-3-(4-{4-[(R)-(2-Cyclopropyl-imidazo[5,1-b]thiazol-3-yl)-hydroxy-methyl]-[1,2,3]triazol-1-yl}-phenoxy)-propane-1,2-diol and (S)-3-(4-{4-[(S)-(2-Cyclopropyl-imidazo[5,1-b]thiazol-3-yl)-hydroxy-methyl]-[1,2,3]triazol-1-yl}-phenoxy)-propane-1,2-diol]	15	> 10200
OC(c1cn(Cc2ccccc2)nn1)c1c(C2CC2)sc2cncn12 (racemic) [Example 1, rac-(1-Benzyl-1H-[1,2,3]triazol-4-yl)-(2-cyclopropyl-imidazo[5,1-b]thiazol-3-yl)-methanol]	90.3	> 10200
OC(c1cn(-c2ccccc2)nn1)c1c(C2CC2)sc2cncn12 (racemic) [Example 2, rac-(2-Cyclopropyl-imidazo[5,1-b]thiazol-3-yl)-(1-phenyl-1H-[1,2,3]triazol-4-yl)-methanol]	28.1	> 10200
Cc1ccccc1-n1cc(C(O)c2c(C3CC3)sc3cncn23)nn1 (racemic) [Example 3, rac-(2-Cyclopropyl-imidazo[5,1-b]thiazol-3-yl)-(1-o-tolyl-1H-[1,2,3]triazol-4-yl)-methanol]	49.2	> 10200
Cc1ccc(-n2cc(C(O)c3c(C4CC4)sc4cncn34)nn2)cc1 (racemic) [Example 4, rac-(2-Cyclopropyl-imidazo[5,1-b]thiazol-3-yl)-(1-p-tolyl-1H-[1,2,3]triazol-4-yl)-methanol]	34.5	> 10200
OC(c1cn(-c2cccc(C(F)(F)F)c2)nn1)c1c(C2CC2)sc2cncn12 (racemic) [Example 5, rac-(2-Cyclopropyl-imidazo[5,1-b]thiazol-3-yl)-[1-(3-trifluoromethyl-phenyl)-1H-[1,2,3]triazol-4-yl]-methanol]	74.2	> 10200
OC(c1cn(-c2ccc(C(F)(F)F)cc2)nn1)c1c(C2CC2)sc2cncn12 (racemic) [Example 6, rac-(2-Cyclopropyl-imidazo[5,1-b]thiazol-3-yl)-[1-(4-trifluoromethyl-phenyl)-1H-[1,2,3]triazol-4-yl]-methanol]	119	> 10200
COc1ccccc1-n1cc(C(O)c2c(C3CC3)sc3cncn23)nn1 (racemic) [Example 7, rac-(2-Cyclopropyl-imidazo[5,1-b]thiazol-3-yl)-[1-(2-methoxy-phenyl)-1H-[1,2,3]triazol-4-yl]-methanol]	50.9	> 10200
COc1cccc(-n2cc(C(O)c3c(C4CC4)sc4cncn34)nn2)c1 (racemic) [Example 8, rac-(2-Cyclopropyl-imidazo[5,1-b]thiazol-3-yl)-[1-(3-methoxy-phenyl)-1H-[1,2,3]triazol-4-yl]-methanol]	35.5	> 10200
COc1ccc(-n2cc(C(O)c3c(C4CC4)sc4cncn34)nn2)cc1 (racemic) [Example 9, rac-(2-Cyclopropyl-imidazo[5,1-b]thiazol-3-yl)-[1-(4-methoxy-phenyl)-1H-[1,2,3]triazol-4-yl]-methanol]	8.62	> 10200
CC(=O)c1ccc(-n2cc(C(O)c3c(C4CC4)sc4cncn34)nn2)cc1 (racemic) [Example 10, rac-1-(4-{4-[(2-Cyclopropyl-imidazo[5,1-b]thiazol-3-yl)-hydroxy-methyl]-[1,2,3]triazol-1-yl}-phenyl)-ethanone]	18.4	> 10200
N#Cc1ccc(-n2cc(C(O)c3c(C4CC4)sc4cncn34)nn2)cc1 (racemic) [Example 11, rac-4-{4-[(2-Cyclopropyl-imidazo[5,1-b]thiazol-3-yl)-hydroxy-methyl]-[1,2,3]triazol-1-yl}-benzonitrile]	39.6	> 10200
CCc1sc2cncn2c1C(O)c1cn(-c2ccccc2)nn1 (racemic) [Example 12, rac-(2-Ethyl-imidazo[5,1-b]thiazol-3-yl)-(1-phenyl-1H-[1,2,3]triazol-4-yl)-methanol]	20.8	6740
OC(c1cn(-c2ccccc2)nn1)c1c(C2CCCC2)sc2cncn12 (racemic) [Example 13, rac-(2-Cyclopentyl-imidazo[5,1-b]thiazol-3-yl)-(1-phenyl-1H-[1,2,3]triazol-4-yl)-methanol]	54.4	8410
OC(c1cn(-c2ccccn2)nn1)c1c(C2CC2)sc2cncn12 (racemic) [Example 14, rac-(2-Cyclopropyl-imidazo[5,1-b]thiazol-3-yl)-(1-pyridin-2-yl-1H-[1,2,3]triazol-4-yl)-methanol]	79.6	> 10200
OC(c1cn(-c2cccnc2)nn1)c1c(C2CC2)sc2cncn12 (racemic) [Example 15, rac-(2-Cyclopropyl-imidazo[5,1-b]thiazol-3-yl)-(1-pyridin-3-yl-1H-[1,2,3]triazol-4-yl)-methanol]	95.8	> 10200
OC(c1cn(-c2ccc3[nH]ccc3c2)nn1)c1c(C2CC2)sc2cncn12 (racemic) [Example 16, rac-(2-Cyclopropyl-imidazo[5,1-b]thiazol-3-yl)-[1-(1H-indol-5-yl)-1H-[1,2,3]triazol-4-yl]-methanol]	9.03	7880
Cc1sc2cncn2c1C(O)c1cn(-c2ccccc2)nn1 (racemic) [Example 17, rac-(2-Methyl-imidazo[5,1-b]thiazol-3-yl)-(1-phenyl-1H-[1,2,3]triazol-4-yl)-methanol]	154	> 10200
N#Cc1cccc(-n2cc(C(O)c3c(C4CC4)sc4cncn34)nn2)c1 (racemic) [Example 18, rac-3-{4-[(2-Cyclopropyl-imidazo[5,1-b]thiazol-3-yl)-hydroxy-methyl]-[1,2,3]triazol-1-yl}-benzonitrile]	9.32	> 10200
OC(c1cn(-c2cncnc2)nn1)c1c(C2CC2)sc2cncn12 (racemic) [Example 19, rac-(2-Cyclopropyl-imidazo[5,1-b]thiazol-3-yl)-(1-pyrimidin-5-yl-1H-[1,2,3]triazol-4-yl)-methanol]	182	> 10200
OC(c1cn(-c2cccc3[nH]ccc23)nn1)c1c(C2CC2)sc2cncn12 (racemic) [Example 20, rac-(2-Cyclopropyl-imidazo[5,1-b]thiazol-3-yl)-[1-(1H-indol-4-yl)-1H-[1,2,3]triazol-4-yl]-methanol]	21.3	> 10200
OC(c1cn(-c2ccc3cc[nH]c3c2)nn1)c1c(C2CC2)sc2cncn12 (racemic) [Example 21, rac-(2-Cyclopropyl-imidazo[5,1-b]thiazol-3-yl)-[1-(1H-indol-6-yl)-1H-[1,2,3]triazol-4-yl]-methanol]	18.1	> 10200
